Legend:
Format in all cases: biochemical
[1] = target: T1, Arabidopsis HPPD (Arabidopsis thaliana, UniProt P93836); experiment: HPPD activity assay (homogentisic acid by HPLC), wildtype enzyme; details: Table 11, calculated from IC50 with Cheng-Prusoff equation, read-out: dissociation constant Ki
T1 construct: His6 (N); made in house; host or cells: E. coli BL21 (DE3)
T1 sequence (P93836 1-445): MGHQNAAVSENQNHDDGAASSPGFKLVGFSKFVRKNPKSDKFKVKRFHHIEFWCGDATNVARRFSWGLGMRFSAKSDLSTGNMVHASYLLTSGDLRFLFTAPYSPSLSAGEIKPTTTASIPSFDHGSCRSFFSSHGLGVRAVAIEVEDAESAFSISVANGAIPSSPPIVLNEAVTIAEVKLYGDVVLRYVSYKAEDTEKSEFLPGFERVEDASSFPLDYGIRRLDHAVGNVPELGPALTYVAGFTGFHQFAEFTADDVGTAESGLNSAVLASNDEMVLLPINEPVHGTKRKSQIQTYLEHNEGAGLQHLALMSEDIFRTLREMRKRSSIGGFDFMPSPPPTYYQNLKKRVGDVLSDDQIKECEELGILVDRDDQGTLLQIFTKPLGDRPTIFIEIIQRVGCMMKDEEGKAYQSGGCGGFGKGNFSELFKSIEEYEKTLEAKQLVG
Method: (§1) HPPD produces homogentisic acid and CO2 from 4-hydroxyphenylpyruvate (4-HPP) and O2. The activity assay for HPPD is based on the analysis of homogentisic acid by reversed phase HPLC.
(§2) The assay mixture can contain 150 mM potassium phosphate buffer pH 7.0, 50 mM L-ascorbic acid, 1 μM FeSO4 and 7 μg of purified enzyme in a total volume of 1 ml.
(§3) Inhibitors are dissolved in DMSO (dimethylsulfoxide) to a concentration of 20 mM or 0.5 mM, respectively. From this stock solution serial five-fold dilutions are prepared in DMSO, which are used in the assay. The respective inhibitor solution accounts for 1% of the assay volume. Thus, final inhibitor concentrations range from 200 μM to 2.5 nM or from 5 μM to 63 pM, respectively.
(§4) After a preincubation of 30 min the reaction is started by adding 4-HPP to a final concentration of 0.1 mM. The reaction is allowed to proceed for 120 min at room temperature. The reaction is stopped by addition of 100 μl of 4.5 M phosphoric acid.
The sample is extracted on an Oasis® HLB cartridge 3 cc/60 mg (Waters) that was preequilibrated with 63 mM phosphoric acid. L-ascorbic acid is washed out with 3 ml of 63 mM phosphoric acid. […]
(§5) 10 μl of the eluate is analyzed by reversed phase HPLC on a Symmetry® C18 column (particle size 3.5 μm, dimensions 4.6×100 mm; Waters) using 5 mM H3PO4/15% ethanol (w/w) as an eluent.
(§6) Homogentisic acid is detected electrochemically and quantified by measuring peak areas (Empower software; Waters).
Activities are normalized by setting the uninhibited enzyme activity to 100%. IC50 values are calculated using non-linear regression. […]
(§7) 5 μl of the cleared sample is analyzed on an Atlantis T3 column (particle size 3 μm, dimensions 3×50 mm; Waters) by isocratic elution using 90% 10 mM NaH2PO4 pH 2.2, 10% methanol (v/v).
(§8) HGA is detected electrochemically at 750 mV (mode: DC; polarity: positive) and quantified by integrating peak areas (Empower software; Waters).
Inhibitors are dissolved in DMSO (dimethylsulfoxide) to a concentration of 0.5 mM. […] IC50 values are calculated using non-linear regression. […]

[2] = target: T2, Arabidopsis HPPD variant Q293H (Arabidopsis thaliana, UniProt P93836, Q293H); experiment: HPPD activity assay, mutant enzyme
T2 construct: His6 (N); made in house; host or cells: E. coli BL21 (DE3)
Method: as §1, §2, §3, §4
(§9) The sample is extracted on an Oasis® HLB cartridge 3 cc/60 mg (Waters) that was preequilibrated with 63 mM phosphoric acid. L-ascorbic acid is washed out with 3 ml of 63 mM phosphoric acid. Homogentisate is eluted with 1 ml of a 1:1 mixture of 63 mM phosphoric acid and methanol (w/w).
as §5, §6
(§10) Activities are normalized by setting the uninhibited enzyme activity to 100%. IC50 values are calculated using non-linear regression.
(§11) The assay mixture can contain 150 mM potassium phosphate buffer pH 7.0, 50 mM L-ascorbic acid, 100 μM Catalase (Sigma-Aldrich), 1 μM FeSO4 and 0.2 units of purified HPPD enzyme in a total volume of 505 μl. 1 unit is defined as the amount of enzyme that is required to produce 1 nmol of HGA per minute at 20° C.
(§12) After a preincubation of 30 min the reaction is started by adding 4-HPP to a final concentration of 0.05 mM. The reaction is allowed to proceed for 45 min at room temperature. The reaction is stopped by the addition of 50 μl of 4.5 M phosphoric acid. The sample is filtered using a […] pore size PVDF filtration device.
as §7, §8
(§13) Inhibitors are dissolved in DMSO (dimethylsulfoxide) to a concentration of 0.5 mM. From this stock solution serial five-fold dilutions are prepared in DMSO, which are used in the assay. The respective inhibitor solution accounts for 1% of the assay volume. Thus, final inhibitor concentrations range from 5 μM to 320 pM, respectively. Activities are normalized by setting the uninhibited enzyme activity to 100%. IC50 values are calculated using non-linear regression.
(§14) Purified, mutant HPPD enzymes are obtained by the methods described above. Dose response and kinetic measurements are carried out using the described HPPD activity assay. Apparent michaelis constants (Km) and maximal reaction velocities (Vmax) are calculated by non-linear regression with the software GraphPad Prism 5 (GraphPad Software, La Jolla, USA) using a substrate inhibition model. Apparent kcat values are calculated from Vmax assuming 100% purity of the enzyme preparation. Weighted means (by standard error) of Km and IC50 values are calculated from at least three independent experiments. The Cheng-Prusoff equation for competitive inhibition (Cheng, Y. C.; Prusoff, W. H. Biochem Pharmacol 1973, 22, 3099-3108) is used to calculate dissociation constants (Ki). Examples of the data obtained are depicted in Table 13.

[3] = target: T3, Arabidopsis HPPD variant Q293N (Arabidopsis thaliana, UniProt P93836, Q293N); experiment: HPPD activity assay, mutant enzyme
T3 construct: His6 (N); made in house; host or cells: E. coli BL21 (DE3)
Method: as §1, §2, §3, §4, §9, §5, §6, §10, §11, §12, §7, §8, §13, §14

T2 sequence (P93836 whole entry Q293H): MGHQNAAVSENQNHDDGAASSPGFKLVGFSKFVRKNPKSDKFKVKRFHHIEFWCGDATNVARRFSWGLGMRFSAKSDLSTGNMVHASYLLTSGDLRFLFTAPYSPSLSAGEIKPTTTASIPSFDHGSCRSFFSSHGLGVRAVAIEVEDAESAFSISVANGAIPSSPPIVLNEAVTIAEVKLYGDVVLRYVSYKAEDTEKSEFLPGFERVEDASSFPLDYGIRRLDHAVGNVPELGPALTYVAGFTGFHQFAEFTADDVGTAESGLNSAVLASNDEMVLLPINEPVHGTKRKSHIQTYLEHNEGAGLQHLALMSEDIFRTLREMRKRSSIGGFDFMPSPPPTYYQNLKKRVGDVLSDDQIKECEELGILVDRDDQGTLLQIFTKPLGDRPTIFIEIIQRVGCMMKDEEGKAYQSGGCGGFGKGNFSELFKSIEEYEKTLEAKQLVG
T3 sequence (P93836 whole entry Q293N): as the sequence (P93836 whole entry Q293H) above, with H293N counted along it

| Structure (SMILES) | Ki [1] [nM] | Ki [2] [nM] | Ki [3] [nM] |
| --- | --- | --- | --- |
| CC1=NOC(c2c(Cl)ccc(C3=C(O)c4ncccc4N(CC(F)F)S3(=O)=O)c2Cl)C1 (stereo not drawn) [Inhibitor 1, 3-[2,4-dichloro-3-(3-methyl-4,5-dihydroisoxazol-5-yl)phenyl]-1-(2,2-difluoroethyl)-2,2-dioxo-pyrido[3,2-c]thiazin-4-ol] | 3 | 23 | 41 |
| Cc1c(C(=O)c2cnn(C)c2O)ccc(S(C)(=O)=O)c1C1=NOCC1 [Topramezone, reference compound] | 4 | 14 | 36 |

— US20130053243A1, “PLANTS HAVING INCREASED TOLERANCE TO HERBICIDES” (BASF SE, priority 2010, published 2013)
